Consider 1 compound from patent US20180031513A1, “CELL CHIP-BASED QUANTITATIVE ANALYSIS OF UNDIFFERENTIATED HUMAN PLURIPOTENT STEM CELL” (SOGANG UNIVERSITY RESEARCH FOUNDATION, priority 2015, published 2018).

Common to all, as to type: cell-based, human
The subject of test [1] is SSEA3-positive vs SSEA3-negative populations of hESC mixed culture. As to the kind of experiment: Active caspase-3 apoptosis FACS in mixed culture of hESCs and differentiated cells derived therefrom. The note with it: 40 nM, mixed culture of hESCs and differentiated cells derived therefrom (FIG. 10). From the text: Cells were stained with respective fluorescent-labeled antibodies and analyzed using FACSCalibur (BD Biosciences). The following antibodies were used: Oct4 (Abcam), FITC Rat Anti-SSEA3 and PE Mouse Anti-Human TRA-1-60 (BD Pharminogen). For apoptosis assays, cells were stained using the PE Annexin V Apoptosis Detection Kit and the PE Active Caspase-3 Apoptosis Kit (BD Pharminogen) according to the manufacturer's direction.
(§1) The present inventors reported two kinds of small molecules for inducing the selective apoptosis of undifferentiated hPSCs in previous studies (33). Therefore, it was predicted that, due to the induction of apoptosis by YM-155, treatment with YM-155 would decrease the number of hPSCs and thereby lower the ipc. […] Label-free cell chip-based quantification of residual undifferentiated hPSCs may be applied at the end stage, which is critical to determine whether any additional treatment of undifferentiated cells is required in order to ensure safety of tumor-free cell therapy. To mimic this situation, hiPSCs were co-cultured with hASMCs. After the co-culture in the cell chip, hiPSCs still maintained the specific colony morphology of hPSCs (FIG. 6C, left panel, black dotted line), but after 24 h of YM155 treatment, there was a typical colony morphology in hiPSCs but not in hASMCs (FIG. 6C, right panel, red dotted line).

Another test concerns hESCs (H9). Kind of test: Cell chip cyclic voltammetry (ipc) of hESCs after YM155 treatment. The following applies: 24 h after dose-dependent YM155 treatment (FIG. 6B). Here is the method: (§2) hESCs (H9; Wicell Research Institute) and hiPSCs (SES8; (32)) were cultured in mTeSR1 medium (StemCell Technologies) under feeder-free conditions. hASMCs and i-dSMCs were cultured in smooth muscle cell-specific medium, SMCM (ScienCell Research Laboratories), and hDFs were cultured in DMEM medium (Gibco) supplemented with 10% FBS and 0.1% gentamycin. Alkaline phosphatase staining was performed according to the direction included in the Alkaline Phosphatase Kit (Sigma).
(§3) Cyclic voltammetry (CV) method was carried out using a CHIe660C Potentiostat (CH Instruments, Austin, Tex., USA). A fabricated chip, based on an Au electrode as a working electrode, an Ag/AgCl (1M KCl) as a reference electrode, and a Pt wire as a counter electrode was used. For the electrochemical measurement, cells were washed with PBS (0.01 M, PH 7.4). […] All measurements were replicated at least three times, and the cell number was calculated following detection.
(§4) The present inventors reported two kinds of small molecules for inducing the selective apoptosis of undifferentiated hPSCs in previous studies (33). […] Label-free cell chip-based quantification of residual undifferentiated hPSCs may be applied at the end stage, which is critical to determine whether any additional treatment of undifferentiated cells is required in order to ensure safety of tumor-free cell therapy. […]

Another test deals with hiPSCs (SES8). As to the kind of experiment: Cell chip cyclic voltammetry (ipc) and cell number of hiPSCs after YM155 treatment. The following applies: 24 h after dose-dependent YM155 treatment (FIG. 6A). The method, then:
as §2, §3, §4

Test [2] relates to hiPSCs co-cultured with hASMCs. Kind of test: Cell chip ipc and colony morphology in mixed culture of hiPSCs and hASMCs after YM155 treatment. The method, then: (§5) Cyclic voltammetry (CV) method was carried out using a CHIe660C Potentiostat (CH Instruments, Austin, Tex., USA). A fabricated chip, based on an Au electrode as a working electrode, an Ag/AgCl (1M KCl) as a reference electrode, and a Pt wire as a counter electrode was used. For the electrochemical measurement, cells were washed with PBS (0.01 M, PH 7.4). CV detection was performed between −0.2 V and 0.6 V at 0.1 V/s in mTeSR1 (StemCell Technologies, #05850). All measurements were replicated at least three times, and the cell number was calculated following detection.
as §1

The subject of another test is undifferentiated hPSCs. As to the kind of experiment: Detection of specific cathodic peak potential (Epc) of hPSCs after YM-155 treatment. The following applies: after YM-155 treatment to ablate undifferentiated hPSCs. The method, then:
as §5

`COCCn1c2c([n+](Cc3cnccn3)c1C)C(=O)c1ccccc1C2=O` [YM-155]: the “apoptosis by active caspase-3” value in test [1] is “shown in only SSEA3-positive populations, not in SSEA3-negative populations”; in test [1] (listed as YM-55), “shown in only the SSEA3+(positive) population, but not in SSEA3-(negative) population”. In addition, the “cathodic peak current (ipc)” value with hESCs (H9) and with hiPSCs (SES8) was “markedly reduced” in each case. Also, in the test on hiPSCs (SES8), the number of cells entry is given as “markedly reduced”. The “ipc level upon co-culture of hiPSCs and hASMCs” value in test [2] (40 nM YM155, compared with equal number of untreated hASMCs) is on record as “as low as that of hASMCs”. In addition, the “hiPSC colony morphology on the cell chip” value in test [2] (24 hour after treatment with 30 nM YM155, mixed culture of hiPSCs and hASMCs (FIG. 6C)) is given as “altered morphology of hiPSC colony”. In addition, the “ipc upon co-culture of hiPSCs and hASMCs” value in test [2] (mixed culture, 24 hours after treatment, different doses (FIG. 6D)) is listed as “gradually decreased in a dose-dependent manner”. For the same compound, in the test with undifferentiated hPSCs, the “specific Epc of hPSCs” value is “completely disappeared”.
